Consider twelve molecules from PMC6598542, “Synthesis of a new series of 3-functionalised-1-phenyl-1,2,3-triazole sulfamoylbenzamides as carbonic anhydrase I, II, IV and IX inhibitors” (Journal of Enzyme Inhibition and Medicinal Chemistry, 2019).

T4 sequence (P22748 19-284): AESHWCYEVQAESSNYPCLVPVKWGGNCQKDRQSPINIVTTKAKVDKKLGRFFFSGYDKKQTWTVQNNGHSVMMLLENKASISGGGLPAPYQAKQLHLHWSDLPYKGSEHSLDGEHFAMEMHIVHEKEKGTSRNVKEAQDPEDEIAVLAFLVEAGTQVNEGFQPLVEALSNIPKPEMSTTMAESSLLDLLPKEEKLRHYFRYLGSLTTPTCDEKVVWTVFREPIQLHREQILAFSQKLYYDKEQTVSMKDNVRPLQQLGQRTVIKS

For the first test, the target named is T1, hCA II (Homo sapiens, UniProt P00918).
T1 construct: gene CA2; recombinant, cytosolic isoform
Nature of the test: stopped-flow CO2 hydration. The class given is biochemical. To be noted: read-out: hCAII. The method in brief: (§1)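 Inhibition of recombinant human isozymes was measured by stopped-flow CO2 hydration, and Ki was obtained by non-linear least-squares fitting with the Cheng-Prusoff equation. Enzyme and inhibitor were first preincubated for 10 min at room temperature, then the reaction was followed for 5–10 s at 557 nm and 25 °C in 10 mM Hepes pH 7.4 containing 0.2 mM Phenol Red and 0.1 M Na2SO4 or NaClO4, with CO2-saturated water as substrate. Each value is the mean of at least three determinations, from at least seven inhibitor concentrations down to 0.01 nM tested in triplicate.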
Turning to `Cc1ccc(-n2cc(CNC(=O)c3cccc(S(N)(=O)=O)c3)nn2)c(C)c1` [6h, N-((1–(2,4-dimethylphenyl)-1H-1,2,3-triazol-4-yl)methyl)-3-sulfamoylbenzamide], the Ki turned out to be 0.516 µM.

Consider `NS(=O)(=O)c1cccc(C(=O)O)c1` [3a, 3-Sulfamoylbenzoic acid], for which the Ki worked out at 8.66 µM.

In the case of `C#CCNC(=O)c1ccc(OC)c(S(N)(=O)=O)c1` [4d, 4-Methoxy-N-(prop-2-yn-1-yl)-3-sulfamoylbenzamide], the Ki stood at 5.53 µM.

For `COc1ccc(C(=O)NCc2cn(-c3ccc(C)cc3C)nn2)cc1S(N)(=O)=O` [6x, N-((1–(2,4-dimethylphenyl)-1H-1,2,3-triazol-4-yl)methyl)-4-methoxy-3-sulfamoylbenzamide], the Ki is 6.39 µM.

Regarding `NS(=O)(=O)c1cc(C(=O)O)ccc1F` [3c, 4-Fluoro-3-sulfamoylbenzoic acid], the Ki came out at 0.76 µM.

For `COc1ccc(C(=O)NCc2cn(-c3ccc(C)cc3)nn2)cc1S(N)(=O)=O` [6w, 4-Methoxy-3-sulfamoyl-N-((1-(p-tolyl)-1H-1,2,3-triazol-4-yl)methyl)benzamide], the Ki stood at 4.16 µM.

Turning to `COc1ccc(C(=O)NCc2cn(-c3ccc(Br)cc3)nn2)cc1S(N)(=O)=O` [6y, N-((1–(4-bromophenyl)-1H-1,2,3-triazol-4-yl)methyl)-4-methoxy-3-sulfamoylbenzamide], the Ki was determined as 2.33 µM.

As for `Cc1cccc(-n2cc(CNC(=O)c3cccc(S(N)(=O)=O)c3)nn2)c1C` [6g, N-((1–(2,3-dimethylphenyl)-1H-1,2,3-triazol-4-yl)methyl)-3-sulfamoylbenzamide], the Ki was 0.366 µM.

For `COc1ccc(C(=O)NCc2cn(-c3ccc(F)cc3)nn2)cc1S(N)(=O)=O` [6v, N-((1–(4-fluorophenyl)-1H-1,2,3-triazol-4-yl)methyl)-4-methoxy-3-sulfamoylbenzamide], the Ki stood at 9.65 µM.

On to `COc1ccc(C(=O)O)cc1S(N)(=O)=O` [3d, 4-Methoxy-3-sulfamoylbenzoic acid], for which the Ki is 9.18 µM.

With `COc1ccccc1-n1cc(CNC(=O)c2ccc(OC)c(S(N)(=O)=O)c2)nn1` [6z, 4-Methoxy-N-((1–(2-methoxyphenyl)-1H-1,2,3-triazol-4-yl)methyl)-3-sulfamoylbenzamide], the Ki turned out to be 5.37 µM.

As for `COc1ccc(C(=O)NCc2cn(-c3ccccc3)nn2)cc1S(N)(=O)=O` [6u, 4-Methoxy-N-((1-phenyl-1H-1,2,3-triazol-4-yl)methyl)-3-sulfamoylbenzamide], the Ki came out at 2.9 µM.

For another test, the target named is T2, hCA IX (Homo sapiens, UniProt Q16790).
T2 construct: gene CA9; recombinant, transmembrane isoform
Nature of the test: stopped-flow CO2 hydration. The class given is biochemical.
Conditions: not given
An outline of the steps: as §1
`Cc1ccc(-n2cc(CNC(=O)c3cccc(S(N)(=O)=O)c3)nn2)c(C)c1` [6h, N-((1–(2,4-dimethylphenyl)-1H-1,2,3-triazol-4-yl)methyl)-3-sulfamoylbenzamide]: the Ki came out at 0.226 µM.

`NS(=O)(=O)c1cccc(C(=O)O)c1` [3a, 3-Sulfamoylbenzoic acid] came in with a Ki of 9.42 µM.

`C#CCNC(=O)c1ccc(OC)c(S(N)(=O)=O)c1` [4d, 4-Methoxy-N-(prop-2-yn-1-yl)-3-sulfamoylbenzamide] gave a Ki of 9.22 µM.

`COc1ccc(C(=O)NCc2cn(-c3ccc(C)cc3C)nn2)cc1S(N)(=O)=O` [6x, N-((1–(2,4-dimethylphenyl)-1H-1,2,3-triazol-4-yl)methyl)-4-methoxy-3-sulfamoylbenzamide] had a Ki of 0.0938 µM.

As to `NS(=O)(=O)c1cc(C(=O)O)ccc1F` [3c, 4-Fluoro-3-sulfamoylbenzoic acid], the Ki amounted to 9.57 µM.

Molecule `COc1ccc(C(=O)NCc2cn(-c3ccc(C)cc3)nn2)cc1S(N)(=O)=O` [6w, 4-Methoxy-3-sulfamoyl-N-((1-(p-tolyl)-1H-1,2,3-triazol-4-yl)methyl)benzamide] registered a Ki of 0.526 µM.

For the molecule `COc1ccc(C(=O)NCc2cn(-c3ccc(Br)cc3)nn2)cc1S(N)(=O)=O` [6y, N-((1–(4-bromophenyl)-1H-1,2,3-triazol-4-yl)methyl)-4-methoxy-3-sulfamoylbenzamide], the Ki was 1.87 µM.

The molecule `Cc1cccc(-n2cc(CNC(=O)c3cccc(S(N)(=O)=O)c3)nn2)c1C` [6g, N-((1–(2,3-dimethylphenyl)-1H-1,2,3-triazol-4-yl)methyl)-3-sulfamoylbenzamide] registered a Ki of 6.13 µM.

As for `COc1ccc(C(=O)NCc2cn(-c3ccc(F)cc3)nn2)cc1S(N)(=O)=O` [6v, N-((1–(4-fluorophenyl)-1H-1,2,3-triazol-4-yl)methyl)-4-methoxy-3-sulfamoylbenzamide], the Ki worked out at 6.82 µM.

Take `COc1ccc(C(=O)O)cc1S(N)(=O)=O` [3d, 4-Methoxy-3-sulfamoylbenzoic acid]: the Ki amounted to 9.67 µM.

The molecule `COc1ccccc1-n1cc(CNC(=O)c2ccc(OC)c(S(N)(=O)=O)c2)nn1` [6z, 4-Methoxy-N-((1–(2-methoxyphenyl)-1H-1,2,3-triazol-4-yl)methyl)-3-sulfamoylbenzamide] had a Ki of 0.768 µM.

`COc1ccc(C(=O)NCc2cn(-c3ccccc3)nn2)cc1S(N)(=O)=O` [6u, 4-Methoxy-N-((1-phenyl-1H-1,2,3-triazol-4-yl)methyl)-3-sulfamoylbenzamide] showed a Ki of 0.703 µM.

In a further test the target is T3, hCA I (Homo sapiens, UniProt P00915).
T3 construct: gene CA1; recombinant, cytosolic isoform
T3 sequence (P00915 2-261): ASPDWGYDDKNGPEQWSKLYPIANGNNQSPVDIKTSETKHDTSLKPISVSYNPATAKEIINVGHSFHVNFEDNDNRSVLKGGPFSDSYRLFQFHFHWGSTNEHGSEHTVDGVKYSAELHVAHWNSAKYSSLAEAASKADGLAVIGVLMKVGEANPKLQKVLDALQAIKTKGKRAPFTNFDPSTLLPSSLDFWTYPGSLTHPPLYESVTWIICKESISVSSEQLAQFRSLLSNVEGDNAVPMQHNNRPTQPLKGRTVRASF
Nature of the test: stopped-flow CO2 hydration.
Conditions: not given
The test is classed as biochemical. An outline of the steps:
as §1
Take `Cc1ccc(-n2cc(CNC(=O)c3cccc(S(N)(=O)=O)c3)nn2)c(C)c1` [6h, N-((1–(2,4-dimethylphenyl)-1H-1,2,3-triazol-4-yl)methyl)-3-sulfamoylbenzamide]: the Ki came out at 693 nM.

`NS(=O)(=O)c1cccc(C(=O)O)c1` [3a, 3-Sulfamoylbenzoic acid] had a Ki of 8770 nM.

In turn, `C#CCNC(=O)c1ccc(OC)c(S(N)(=O)=O)c1` [4d, 4-Methoxy-N-(prop-2-yn-1-yl)-3-sulfamoylbenzamide] yielded a Ki of 9500 nM.

`COc1ccc(C(=O)NCc2cn(-c3ccc(C)cc3C)nn2)cc1S(N)(=O)=O` [6x, N-((1–(2,4-dimethylphenyl)-1H-1,2,3-triazol-4-yl)methyl)-4-methoxy-3-sulfamoylbenzamide]: the Ki is 7560 nM.

In turn, `NS(=O)(=O)c1cc(C(=O)O)ccc1F` [3c, 4-Fluoro-3-sulfamoylbenzoic acid] yielded a Ki of 5750 nM.

`COc1ccc(C(=O)NCc2cn(-c3ccc(C)cc3)nn2)cc1S(N)(=O)=O` [6w, 4-Methoxy-3-sulfamoyl-N-((1-(p-tolyl)-1H-1,2,3-triazol-4-yl)methyl)benzamide] had a Ki of 967 nM.

As for `COc1ccc(C(=O)NCc2cn(-c3ccc(Br)cc3)nn2)cc1S(N)(=O)=O` [6y, N-((1–(4-bromophenyl)-1H-1,2,3-triazol-4-yl)methyl)-4-methoxy-3-sulfamoylbenzamide], the Ki amounted to 555 nM.

As for `Cc1cccc(-n2cc(CNC(=O)c3cccc(S(N)(=O)=O)c3)nn2)c1C` [6g, N-((1–(2,3-dimethylphenyl)-1H-1,2,3-triazol-4-yl)methyl)-3-sulfamoylbenzamide], the Ki is 448 nM.

Turning to `COc1ccc(C(=O)NCc2cn(-c3ccc(F)cc3)nn2)cc1S(N)(=O)=O` [6v, N-((1–(4-fluorophenyl)-1H-1,2,3-triazol-4-yl)methyl)-4-methoxy-3-sulfamoylbenzamide], the Ki turned out to be 572 nM.

Consider `COc1ccc(C(=O)O)cc1S(N)(=O)=O` [3d, 4-Methoxy-3-sulfamoylbenzoic acid], for which the Ki turned out to be 9760 nM.

`COc1ccccc1-n1cc(CNC(=O)c2ccc(OC)c(S(N)(=O)=O)c2)nn1` [6z, 4-Methoxy-N-((1–(2-methoxyphenyl)-1H-1,2,3-triazol-4-yl)methyl)-3-sulfamoylbenzamide] came in with a Ki of 952 nM.

Consider `COc1ccc(C(=O)NCc2cn(-c3ccccc3)nn2)cc1S(N)(=O)=O` [6u, 4-Methoxy-N-((1-phenyl-1H-1,2,3-triazol-4-yl)methyl)-3-sulfamoylbenzamide], for which the Ki came to 681 nM.

The next test concerns the target T4, hCA IV (Homo sapiens, UniProt P22748).
T4 construct: gene CA4
Nature of the test: biochemical. Set-up: Stopped-flow CO2 hydration assay, phenol red at 557 nm, 10 min preincubation, recombinant hCA; Ki via Cheng-Prusoff.
Conditions: not given
Here is the method:
An SX.18 MV-R Applied Photophysics (Oxford, UK) stopped-flow instrument has been used for assaying the CA catalyzed CO2 hydration activity. Phenol Red (at a concentration of 0.2 mM) has been used as indicator, working at the absorbance maximum of 557 nm, with 10 mM Hepes (pH 7.4) as buffer, 0.1 M Na2SO4 or NaClO4 (for maintaining constant the ionic strength; these anions are not inhibitory in the used concentration), following the CA-catalyzed CO2 hydration reaction for a period of 5–10 s. Saturated CO2 solutions in water at 25 °C were used as substrate. Stock solutions of inhibitors were prepared at a concentration of 10 μM (in DMSO-water 1:1, v/v) and dilutions up to 0.01 nM done with the assay buffer mentioned above. At least seven different inhibitor concentrations have been used for measuring the inhibition constant. Inhibitor and enzyme solutions were preincubated together for 10 min at room temperature prior to assay, in order to allow for the formation of the E-I complex. Triplicate experiments were done for each inhibitor concentration, and the values reported throughout the paper are the mean of such results. The inhibition constants were obtained by non-linear least-squares methods using the Cheng-Prusoff equation, as reported earlier, and represent the mean from at least three different determinations. All CA isozymes used here were recombinant proteins obtained as reported earlier by our group[10]^c,[25]^,[26]. The newly synthesised compounds 3-sulfamoylbenzamide linked 1,2,3-triazoles (Figure 4) (6a–z) as well as the intermediates (3a–d) and (4a–d) (listed in Table 1) were screened for their CA inhibitory activities against four physiologically significant isoforms, the cytosolic hCA I (associated with edema) and II (associated with glaucoma) as well as the membrane bound hCA IV (associated with glaucoma and retinitis pigmentosa) and transmembrane hCA IX (associated with tumors) by means of the stopped flow carbon dioxide assays[29] in comparison to AAZ as standard CAI (Table 2).
In the case of `Cc1ccc(-n2cc(CNC(=O)c3cccc(S(N)(=O)=O)c3)nn2)c(C)c1` [6h, N-((1–(2,4-dimethylphenyl)-1H-1,2,3-triazol-4-yl)methyl)-3-sulfamoylbenzamide], the Ki was determined as 1.76 µM.

Consider `C#CCNC(=O)c1ccc(OC)c(S(N)(=O)=O)c1` [4d, 4-Methoxy-N-(prop-2-yn-1-yl)-3-sulfamoylbenzamide], for which the Ki came out at 6.84 µM.

With `COc1ccc(C(=O)NCc2cn(-c3ccc(C)cc3C)nn2)cc1S(N)(=O)=O` [6x, N-((1–(2,4-dimethylphenyl)-1H-1,2,3-triazol-4-yl)methyl)-4-methoxy-3-sulfamoylbenzamide], the Ki came to 9.34 µM.

With `NS(=O)(=O)c1cc(C(=O)O)ccc1F` [3c, 4-Fluoro-3-sulfamoylbenzoic acid], the Ki was 0.958 µM.

Take `COc1ccc(C(=O)NCc2cn(-c3ccc(C)cc3)nn2)cc1S(N)(=O)=O` [6w, 4-Methoxy-3-sulfamoyl-N-((1-(p-tolyl)-1H-1,2,3-triazol-4-yl)methyl)benzamide]: the Ki worked out at 7.62 µM.

For the molecule `COc1ccc(C(=O)NCc2cn(-c3ccc(Br)cc3)nn2)cc1S(N)(=O)=O` [6y, N-((1–(4-bromophenyl)-1H-1,2,3-triazol-4-yl)methyl)-4-methoxy-3-sulfamoylbenzamide], the Ki turned out to be 9.08 µM.

With `Cc1cccc(-n2cc(CNC(=O)c3cccc(S(N)(=O)=O)c3)nn2)c1C` [6g, N-((1–(2,3-dimethylphenyl)-1H-1,2,3-triazol-4-yl)methyl)-3-sulfamoylbenzamide], the Ki is 8.58 µM.

`COc1ccc(C(=O)NCc2cn(-c3ccc(F)cc3)nn2)cc1S(N)(=O)=O` [6v, N-((1–(4-fluorophenyl)-1H-1,2,3-triazol-4-yl)methyl)-4-methoxy-3-sulfamoylbenzamide]: the Ki is 5.35 µM.

For the molecule `COc1ccc(C(=O)O)cc1S(N)(=O)=O` [3d, 4-Methoxy-3-sulfamoylbenzoic acid], the Ki stood at 8.78 µM.

As to `COc1ccccc1-n1cc(CNC(=O)c2ccc(OC)c(S(N)(=O)=O)c2)nn1` [6z, 4-Methoxy-N-((1–(2-methoxyphenyl)-1H-1,2,3-triazol-4-yl)methyl)-3-sulfamoylbenzamide], the Ki worked out at 8.93 µM.

Consider `COc1ccc(C(=O)NCc2cn(-c3ccccc3)nn2)cc1S(N)(=O)=O` [6u, 4-Methoxy-N-((1-phenyl-1H-1,2,3-triazol-4-yl)methyl)-3-sulfamoylbenzamide], for which the Ki was 9.35 µM.
